# From ChEMBL document CHEMBL1151757, “Synthesis, radiosynthesis, and biological evaluation of fluorine-18-labeled 2beta-carbo(fluoroalkoxy)-3beta-(3'-((Z)-2-haloethenyl)phenyl)nortropanes: candidate radioligands for in vivo imaging of the serotonin transporter with positron emission tomography” (J Med Chem, 2008)
# Assays:
# [1] = Ratio of drug uptake in pons to cerebellum in anesthetized cynomolgus monkey after 215 mins postinjection; type: ADME, organism-based, Macaca fascicularis; settings: in vivo
# [2] = Ratio of drug uptake in pons to cerebellum in anesthetized cynomolgus monkey after 185 mins postinjection; type: ADME, organism-based, Macaca fascicularis; settings: in vivo
# [3] = Ratio of drug uptake in pons to cerebellum in anesthetized cynomolgus monkey after 195 mins postinjection; type: ADME, organism-based, Macaca fascicularis; settings: in vivo, 3.25 h
# [4] = Ratio of drug uptake in medulla to cerebellum in anesthetized cynomolgus monkey after 6.5 mins postinjection; type: ADME, organism-based, Macaca fascicularis; settings: in vivo
# [5] = Ratio of drug uptake in medulla to cerebellum in anesthetized cynomolgus monkey after 85 mins postinjection; type: ADME, organism-based, Macaca fascicularis; settings: in vivo
# [6] = Drug uptake in anesthetized cynomolgus monkey brain occipital lobe after 9.5 mins postinjection; type: ADME, organism-based, Macaca fascicularis; settings: in vivo
# [7] = Drug uptake in anesthetized cynomolgus monkey brain occipital lobe after 105 mins postinjection; type: ADME, organism-based, Macaca fascicularis; settings: in vivo, 1.75 h
# [8] = Drug uptake in anesthetized cynomolgus monkey brain occipital lobe after 115 mins postinjection; type: ADME, organism-based, Macaca fascicularis; settings: in vivo
# [9] = Drug uptake in anesthetized cynomolgus monkey brain frontal lobe after 15.5 mins postinjection; type: ADME, organism-based, Macaca fascicularis; settings: in vivo
# [10] = Drug uptake in anesthetized cynomolgus monkey brain frontal lobe after 45 mins postinjection; type: ADME, organism-based, Macaca fascicularis; settings: in vivo, 0.75 h
# [11] = Drug uptake in anesthetized cynomolgus monkey brain frontal lobe after 225 mins postinjection; type: ADME, organism-based, Macaca fascicularis; settings: in vivo, 3.75 h
# [12] = Drug uptake in anesthetized cynomolgus monkey brain frontal lobe after 235 mins postinjection; type: ADME, organism-based, Macaca fascicularis; settings: in vivo
# [13] = Ratio of drug uptake in midbrain to cerebellum in anesthetized cynomolgus monkey after 235 mins postinjection; type: ADME, organism-based, Macaca fascicularis; settings: in vivo
# [14] = Ratio of drug uptake in pons to cerebellum in anesthetized cynomolgus monkey after 1.5 mins postinjection; type: ADME, organism-based, Macaca fascicularis; settings: in vivo, 0.025 h
# [15] = Ratio of drug uptake in occipital lobe to cerebellum in anesthetized cynomolgus monkey after 115 mins postinjection; type: ADME, organism-based, Macaca fascicularis; settings: in vivo
# [16] = Ratio of drug uptake in occipital lobe to cerebellum in anesthetized cynomolgus monkey after 125 mins postinjection; type: ADME, organism-based, Macaca fascicularis; settings: in vivo
# Putamen [17] = assay: Drug uptake in anesthetized cynomolgus monkey brain putamen after 115 mins postinjection; type: ADME, organism-based, Macaca fascicularis; set-up: unit not given here; settings: in vivo
# Putamen [18] = assay: Drug uptake in anesthetized cynomolgus monkey brain putamen after 125 mins postinjection; type: ADME, organism-based, Macaca fascicularis; settings: in vivo
# Putamen [19] = assay: Drug uptake in anesthetized cynomolgus monkey brain putamen after 165 mins postinjection; type: ADME, organism-based, Macaca fascicularis; settings: in vivo, 2.75 h
# Pons [20] = assay: Drug uptake in anesthetized cynomolgus monkey brain pons after 3.5 mins postinjection; type: ADME, organism-based, Macaca fascicularis; settings: in vivo
# Pons [21] = assay: Drug uptake in anesthetized cynomolgus monkey brain pons after 12.5 mins postinjection; type: ADME, organism-based, Macaca fascicularis; settings: in vivo
# Pons [22] = assay: Drug uptake in anesthetized cynomolgus monkey brain pons after 22.5 mins postinjection; type: ADME, organism-based, Macaca fascicularis; settings: in vivo, 0.375 h
# Medulla [23] = assay: Drug uptake in anesthetized cynomolgus monkey brain medulla after 195 mins postinjection; type: ADME, organism-based, Macaca fascicularis; settings: in vivo, 3.25 h
# [24] = Drug uptake in anesthetized cynomolgus monkey brain frontal lobe after 185 mins postinjection; type: ADME, organism-based, Macaca fascicularis; settings: in vivo
# Pons [25] = assay: Drug uptake in anesthetized cynomolgus monkey brain pons after 145 mins postinjection; type: ADME, organism-based, Macaca fascicularis; settings: in vivo
# Medulla [26] = assay: Drug uptake in anesthetized cynomolgus monkey brain medulla after 18.5 mins postinjection; type: ADME, organism-based, Macaca fascicularis; settings: in vivo
# Medulla [27] = assay: Drug uptake in anesthetized cynomolgus monkey brain medulla after 35 mins postinjection; type: ADME, organism-based, Macaca fascicularis; settings: in vivo
# [28] = Ratio of drug uptake in caudate to cerebellum in anesthetized cynomolgus monkey after 225 mins postinjection; type: ADME, organism-based, Macaca fascicularis; settings: in vivo, 3.75 h
# [29] = Ratio of drug uptake in putamen to cerebellum in anesthetized cynomolgus monkey after 3.5 mins postinjection; type: ADME, organism-based, Macaca fascicularis; settings: in vivo
# Medulla [30] = assay: Drug uptake in anesthetized cynomolgus monkey brain medulla after 125 mins postinjection; type: ADME, organism-based, Macaca fascicularis; settings: in vivo
# Medulla [31] = assay: Drug uptake in anesthetized cynomolgus monkey brain medulla after 155 mins postinjection; type: ADME, organism-based, Macaca fascicularis; settings: in vivo
# [32] = Ratio of drug uptake in putamen to cerebellum in anesthetized cynomolgus monkey after 155 mins postinjection; type: ADME, organism-based, Macaca fascicularis; settings: in vivo
# [33] = Drug uptake in anesthetized cynomolgus monkey brain cerebellum after 2.5 mins postinjection; type: ADME, organism-based, Macaca fascicularis; settings: in vivo
# [34] = Drug uptake in anesthetized cynomolgus monkey brain cerebellum after 75 mins postinjection; type: ADME, organism-based, Macaca fascicularis; settings: in vivo, 1.25 h
# [35] = Ratio of drug uptake in thalamus to cerebellum in anesthetized cynomolgus monkey after 205 mins postinjection; type: ADME, organism-based, Macaca fascicularis; settings: in vivo
# Caudate [36] = assay: Drug uptake in anesthetized cynomolgus monkey brain caudate after 0.5 mins postinjection; type: ADME, organism-based, Macaca fascicularis, Caudate nucleus; settings: in vivo
# Caudate [37] = assay: Drug uptake in anesthetized cynomolgus monkey brain caudate after 4.5 mins postinjection; type: ADME, organism-based, Macaca fascicularis, Caudate nucleus; settings: in vivo, 0.075 h
# Caudate [38] = assay: Drug uptake in anesthetized cynomolgus monkey brain caudate after 125 mins postinjection; type: ADME, organism-based, Macaca fascicularis, Caudate nucleus; settings: in vivo
# Caudate [39] = assay: Drug uptake in anesthetized cynomolgus monkey brain caudate after 175 mins postinjection; type: ADME, organism-based, Macaca fascicularis, Caudate nucleus; settings: in vivo
# [40] = Ratio of drug uptake in occipital lobe to cerebellum in anesthetized cynomolgus monkey after 12.5 mins postinjection; type: ADME, organism-based, Macaca fascicularis; settings: in vivo
# Putamen [41] = assay: Drug uptake in anesthetized cynomolgus monkey brain putamen after 45 mins postinjection; type: ADME, organism-based, Macaca fascicularis; set-up: unit not given here; settings: in vivo, 0.75 h
# Thalamus [42] = assay: Drug uptake in anesthetized cynomolgus monkey brain thalamus after 95 mins postinjection; type: ADME, organism-based, Macaca fascicularis; set-up: unit not given here; settings: in vivo
# Thalamus [43] = assay: Drug uptake in anesthetized cynomolgus monkey brain thalamus after 155 mins postinjection; type: ADME, organism-based, Macaca fascicularis; set-up: unit not given here; settings: in vivo
# Thalamus [44] = assay: Drug uptake in anesthetized cynomolgus monkey brain thalamus after 175 mins postinjection; type: ADME, organism-based, Macaca fascicularis; set-up: unit not given here; settings: in vivo
# Midbrain [45] = assay: Drug uptake in anesthetized cynomolgus monkey brain midbrain after 4.5 mins postinjection; type: ADME, organism-based, Macaca fascicularis; set-up: unit not given here; settings: in vivo, 0.075 h
# Midbrain [46] = assay: Drug uptake in anesthetized cynomolgus monkey brain midbrain after 6.5 mins postinjection; type: ADME, organism-based, Macaca fascicularis; set-up: unit not given here; settings: in vivo
# Midbrain [47] = assay: Drug uptake in anesthetized cynomolgus monkey brain midbrain after 65 mins postinjection; type: ADME, organism-based, Macaca fascicularis; set-up: unit not given here; settings: in vivo
# Midbrain [48] = assay: Drug uptake in anesthetized cynomolgus monkey brain midbrain after 125 mins postinjection; type: ADME, organism-based, Macaca fascicularis; set-up: unit not given here; settings: in vivo
smiles,measurement,setting,value
O=C(OCCC[18F])C1C2CCC(CC1c1cccc(/C=C\I)c1)N2 (stereo not drawn),Ratio,[1],1.5
same,Ratio,[2],1.5
same,Ratio,[3],1.5
same,Ratio,[4],1
same,Ratio,[5],1.3
same,Drug uptake,[6],3.14
same,Drug uptake,[7],3.18
same,Drug uptake,[8],3.09
same,Drug uptake,[9],2.42
same,Drug uptake,[10],2.84
same,Drug uptake,[11],1.82
same,Drug uptake,[12],1.78
same,Ratio,[13],1.9
same,Ratio,[14],0.8
same,Ratio,[15],1
same,Ratio,[16],1.1
same,Drug uptake,Putamen [17],4.44
same,Drug uptake,Putamen [18],4.31
same,Drug uptake,Putamen [19],3.74
same,Drug uptake,Pons [20],1.71
same,Drug uptake,Pons [21],3.49
same,Drug uptake,Pons [22],4.1
same,Drug uptake,Medulla [23],3.78
same,Drug uptake,[24],2.03
same,Drug uptake,Pons [25],3.74
same,Drug uptake,Medulla [26],4.6
same,Drug uptake,Medulla [27],5.04
same,Ratio,[28],1.3
same,Ratio,[29],0.8
same,Drug uptake,Medulla [30],4.54
same,Drug uptake,Medulla [31],4.09
same,Ratio,[32],1.6
same,Drug uptake,[33],1.12
same,Drug uptake,[34],3.87
same,Ratio,[35],1.6
same,Drug uptake,Caudate [36],0.01
same,Drug uptake,Caudate [37],1.55
same,Drug uptake,Caudate [38],3.51
same,Drug uptake,Caudate [39],2.83
same,Ratio,[40],0.8
same,Drug uptake,Putamen [41],5.05
same,Drug uptake,Thalamus [42],4.52
same,Drug uptake,Thalamus [43],3.73
same,Drug uptake,Thalamus [44],3.44
same,Drug uptake,Midbrain [45],2.42
same,Drug uptake,Midbrain [46],3.41
same,Drug uptake,Midbrain [47],4.97
same,Drug uptake,Midbrain [48],4.58
